Structures can show the parent of a compound that is named as a salt. Where two headings read alike, the source gives them in different places.
Legend:
K562 leukemia cells = assay: MTT assay, in vitro inhibitory activity on cells; format: cell-based; conditions: Homo sapiens, typically 48 hours, read-out: IC50 K562 Chronic myelogenous leukemia cells
Text: (§1) In this example, MTT assay was used to detect in vitro inhibitory activity of the compounds prepared according to the above examples on the cells.
(§2) Dimethyl sulfoxide (DMSO) is capable of dissolving formazan in cells, and absorbance value can be measured at a wavelength of 490 nm by an enzyme-linked immunometric meter, which reflects the number of living cells. Within a certain range of the number of cells, the amount of MTT crystals formed is proportional to the number of living cells.
(§3) 2. Culturing in a 37° C., 5% CO2 incubator and keeping the cells adhering to the walls of the wells.
(§4) 4. Carefully removing the supernatant, gently washing with PBS and discarding the supernatant again.
(§5) 6. Terminating culturing and carefully discarding the medium in each well. 7. Adding 150 μl dimethyl sulfoxide into each well, shaking for 10 minutes at low speed in a shaker, to make crystals fully dissolved.
(§6) 8. Measuring the absorbance of each well at 490 nm by an enzyme-linked immunometric meter.

[1] = system: MDA-MB-231 human breast cancer cells; assay: MTT assay, in vitro inhibitory activity on cells; format: cell-based; conditions: typically 48 hours
Text: as §1, §2, §3, §4, §5, §6

[2] = system: Saos-2 human osteosarcoma cells; assay: MTT assay, in vitro inhibitory activity on cells; format: cell-based; conditions: typically 48 hours
Text: as §1, §2, §3, §4, §5, §6

[3] = system: Ovcar-3 human ovarian cancer cells; assay: MTT assay, in vitro inhibitory activity on cells; format: cell-based; conditions: typically 48 hours
Text: as §1, §2, §3, §4, §5, §6

[4] = Pharmacokinetic studies in male SD rats; format: in vivo; conditions: rat, plasma; for MRT inf: read-out: MRT(0-∞)
Protocol: The compound prepared in Example 27 of the present invention was illustratively selected for this experiment. The pharmaceutical formulation for oral administration was made by dissolving the compound in physiological saline to prepare 3 mg/ml of suspension. The pharmaceutical formulation for caudal vein injection was made by using a mixed solution of DMSO, polyoxyethylene castor oil and physiological saline in the volume ratio of 1:30:69 to prepare 2.5 mg/ml of solution.
Male SD rats, each group of three, weighing 150 g-250 g, were provided by Shanghai SIPPR-BK Laboratory Animal Co. Ltd., China. The tested rats were acclimatized to the environment for 2-4 days prior to the experiment, and fasted for 8-12 hours before administration. The rats drank water freely 2 hours after administration, and were fed food 4 hours after administration.
1) Taking blank plasma (zero-hour sample) after the SD rats were fasted but allowed drinking water freely for 12 hours;
2) Administering to three rats in Step 1) the compound prepared in Example 27 at 15 mg/kg by gavage (Intragastric administration, IG);
administering to another three rats in Step 1) the compound prepared in Example 27 at 3 mg/kg by caudal vein (Intravenous administration, IV);
(§7) 3) Collecting sequentially blood from retinal venous plexus of the rats at 10 min, 30 min, 1 h, 2 h, 4 h, 6 h, 8 h, 10 h, 24 h after gavage administration, placing into the heparin-coated EP tubes, taking the upper plasma after centrifuging for 5 min at 8000 rpm/min, and storing at −20° C. until LC-MS/MS analysis;
4) Calculating the pharmacokinetic parameters using WinNonlin software according to the blood concentration—time data obtained from Step 3), shown in Table 4;
as §7, with “5)” for “3)”, “5 min, 15” for “10”, “h,” for “h, 6 h,”, “8” for “8 h, 10”, “caudal vein” for “gavage”
6) Calculating the pharmacokinetic parameters using WinNonlin software according to the blood concentration—time data obtained from Step 5), shown in Table 4.

Structure (SMILES): Cc1ccc(NC(=O)Nc2ccc(CN3CCN(C)CC3)c(C(F)(F)F)c2)cc1C#Cc1ccn2nc(N(C)C)nc2c1 [Example 8]
- IC50 (K562 leukemia cells): 420 nM

Structure (SMILES): Cc1cn(-c2cc(C(=O)Nc3ccc(F)c(C#Cc4ccc(-c5ncc(C(F)(F)F)[nH]5)nc4)c3)cc(C(F)(F)F)c2)cn1 [Example 24, 3-trifluoromethyl-5-(4-methylimidazol-1-yl)-N-[3-(2-(5-trifluoromethyl-1H-imidazol-2-yl)pyridin-5-yl)ethynyl-4-fluorophenyl]-benzamide]
- IC50 [1]: 1170 nM
- IC50 (K562 leukemia cells): 940 nM

Structure (SMILES): Cc1cnc(-c2nc(C#Cc3cc(C(=O)Nc4ccc(CN5CCN(CCO)CC5)c(C(F)(F)F)c4)ccc3C)cn2C)[nH]1 [Example 12, 4-methyl-3-((1-methyl-5′-methyl-1H,1′H-[2,2′-diimidazol]-4-yl)ethynyl)-N-[4-((4-hydroxyethylpiperazin-1-yl)methyl)-3-trifluoromethylphenyl]benzamide]
- IC50 [1]: 1270 nM
- IC50 [2]: 5730 nM
- IC50 [3]: 4060 nM
- IC50 (K562 leukemia cells): 2310 nM

Structure (SMILES): Cc1ccc(C(=O)Nc2ccc(CN3CCN(C)CC3)c(C(F)(F)F)c2)cc1C#Cc1ccc(-c2nc[nH]n2)nc1 [Example 25, 4-methyl-3-((2-(1,2,4-triazol-3-yl)pyridin-5-yl)ethynyl)-N-[4-((4-methylpiperazin-1-yl)methyl)-3-trifluoromethylphenyl]benzamide]
- IC50 [1]: 2860 nM
- IC50 (K562 leukemia cells): 3580 nM

Structure (SMILES): CNC(=O)c1cc(Oc2cc(NC(=O)c3ccc(F)c(C#Cc4cnc(-c5nc[nH]n5)n4C)c3)cc(C(F)(F)F)c2)ccn1 [Example 17, 4-fluoro-3-[1-methyl-2-([1,2,4]-1H-triazol-3-yl)imidazol-5-yl]ethynyl-N-[3-trifluoromethyl-5-(2-N-methylcarbamoylpyridin-4-yl)oxy]phenylbenzamide]
- IC50 [1]: 980 nM
- IC50 [2]: 640 nM
- IC50 [3]: 3980 nM

Structure (SMILES): Cc1ccc(NC(=O)Nc2ccc(CN3CCN(C)CC3)c(C(F)(F)F)c2)cc1C#Cc1cnc2[nH]ccc2n1 [Example 2, N-[3-((1H-pyrrolo[2,3-b]pyrazin-5-yl)ethynyl)-4-methylphenyl]-N′-[4-((4-methylpiperazin-1-yl)methyl)-3-trifluoromethylphenyl]urea]
- IC50 [1]: 110 nM
- IC50 [2]: 270 nM
- IC50 [3]: 3090 nM
- IC50 (K562 leukemia cells): 2060 nM

Structure (SMILES): Cc1ccc(NC(=O)c2ccc(CN3CCN(CCO)CC3)c(C(F)(F)F)c2)cc1C#Cc1cn(C)c(-c2ncc(C(F)(F)F)[nH]2)n1 [Example 15]
- IC50 [1]: 560 nM
- IC50 (K562 leukemia cells): 370 nM

Structure (SMILES): Cc1ccc(NC(=O)Nc2ccc(CN3CC[C@@H](N(C)C)C3)c(F)c2)cc1C#Cc1cn(C)c(-c2ncc(C(F)(F)F)[nH]2)n1 [Example 13, N-[4-methyl-3-((1-methyl-5′-trifluoromethyl-1H,1′H-[2,2′-diimidazol]-4-yl)ethynyl)phenyl]-N′—(R)-[4-((3-dimethylaminotetrahydropyrrol-1-yl)methyl)-3-fluorophenyl]urea]
- IC50 [1]: 290 nM
- IC50 (K562 leukemia cells): 520 nM

Structure (SMILES): Cc1ccc(NC(=O)c2ccc(CN3CCN(C)CC3)cc2)cc1C#Cc1ccc(-c2ncc(C#N)[nH]2)nc1 [Example 21]
- IC50 [1]: 2060 nM
- IC50 (K562 leukemia cells): 3590 nM

Structure (SMILES): Cc1ccc(NC(=O)Nc2ccc(CN3CCN(C)CC3)c(C(F)(F)F)c2)cc1C#Cc1ccc(-c2ncc(C#N)[nH]2)nc1 [Example 23, N-[3-(2-(5-acetonitrile-1H-imidazol-2-yl)pyridin-5-yl)ethynyl-4-methylphenyl]-N′-[3-trifluoromethyl-4-(4-methylpiperazin-1-ylmethyl)phenyl]urea]
- IC50 (K562 leukemia cells): 3310 nM

Structure (SMILES): Cc1ccc(NC(=O)Nc2ccc(CN3CCN(C)CC3)c(C(F)(F)F)c2)cc1C#Cc1cn(C)c(-c2ncc(C(F)(F)F)[nH]2)n1 [Example 14, N-[4-methyl-3-((1-methyl-5′-trifluoromethyl-1H,1′H-[2,2′-diimidazol]-4-yl)ethynyl)phenyl]-N′-[4-((4-methylpiperazin-1-yl)methyl)-3-trifluoromethylphenyl]urea]
- IC50 [1]: 1210 nM
- IC50 (K562 leukemia cells): 160 nM

Structure (SMILES): Cc1ccc(C(=O)Nc2ccc(CN3CC[C@H](N(C)C)C3)c(C(F)(F)F)c2)cc1C#Cc1ccc(-c2ncc(F)[nH]2)nc1 [Example 22, 4-methyl-3-((2-(5-fluoro-1H-imidazol-2-yl)pyridin-5-yl)ethynyl)-N-[(S)-4-((3-dimethylaminotetrahydropyrrol-1-yl)methyl)-3-trifluoromethylphenyl]benzamide]
- IC50 [1]: 1150 nM
- IC50 (K562 leukemia cells): 4070 nM

Structure (SMILES): Cc1ccc(C(=O)Nc2ccc(CN3CC[C@@H](N(C)C)C3)c(C(F)(F)F)c2)cc1C#Cc1ccc(-c2ncc(C(F)(F)F)[nH]2)nc1 [Example 20, 4-methyl-3-((2-(5-trifluoromethyl-1H-imidazol-2-yl)pyridin-5-yl)ethynyl)-N—[(R)-4-((3-dimethylaminotetrahydropyrrol-1-yl)methyl)-3-trifluoromethylphenyl]benzamide]
- IC50 [1]: 4720 nM
- IC50 (K562 leukemia cells): 2210 nM

Structure (SMILES): Cc1cn(-c2cc(NC(=O)c3ccc(F)c(C#Cc4cnc(-c5nc[nH]n5)n4C)c3)cc(C(F)(F)F)c2)cn1 [Example 16, 3-[1-methyl-2-([1,2,4]-1H-triazol-3-yl)imidazol-5-yl]ethynyl-4-fluoro-N-[3-trifluoromethyl-5-(4-methylimidazol-1-yl)phenyl]benzamide]
- IC50 [1]: 1270 nM
- IC50 [2]: 1160 nM
- IC50 [3]: 4720 nM

Structure (SMILES): CNC(=O)c1cc(Oc2ccc(NC(=O)c3ccc(C)c(C#Cc4ccc(-c5nc[nH]n5)nc4)c3)cc2)ccn1 [Example 26, 4-methyl-3-[2-([1,2,4]-1H-triazol-3-yl)pyridin-5-yl]ethynyl-N-[(2-N-methylcarbamoylpyridin-4-yl)oxy]phenylbenzamide]
- IC50 (K562 leukemia cells): 5910 nM

Structure (SMILES): Cc1ccc(C(=O)Nc2ccc(CN3CCN(C)CC3)c(C(F)(F)F)c2)cc1C#Cc1cn(C)c(-c2ncc[nH]2)n1 [Example 10, 4-methyl-3-((1-methyl-1H,1′H-[2,2′-diimidazol]-4-yl)ethynyl)-N-[4-((4-methylpiperazin-1-yl)methyl)-3-trifluoromethylphenyl]benzamide]
- IC50 [1]: 1420 nM
- IC50 [2]: 870 nM
- IC50 [3]: 3190 nM
- IC50 (K562 leukemia cells): 1920 nM

Structure (SMILES): Cc1ccc(NC(=O)Nc2ccc(CN3CCN(C)CC3)c(C(F)(F)F)c2)cc1C#Cc1cnc2[nH]ncc2c1 [Example 1, N-[3-((1H-pyrazolo[3,4-b]pyridin-5-yl)ethynyl)-4-methylphenyl]-N′-[4-((4-methylpiperazin-1-yl)methyl)-3-trifluoromethylphenyl]urea]
- IC50 [1]: 2790 nM
- IC50 (K562 leukemia cells): 4130 nM

Structure (SMILES): Cc1ccc(C(=O)Nc2ccc(CN3CCN(C)CC3)c(C(F)(F)F)c2)cc1C#Cc1cn(C)c(-c2ncc([N+](=O)[O-])[nH]2)n1 [Example 11, 4-methyl-3-((1-methyl-5′-nitro-1H,1′H-[2,2′-diimidazol]-4-yl)ethynyl)-N-[4-((4-methylpiperazin-1-yl)methyl)-3-trifluoromethylphenyl]benzamide]
- IC50 [1]: 360 nM
- IC50 [2]: 2680 nM
- IC50 [3]: 10000 nM
- IC50 (K562 leukemia cells): 3140 nM

Structure (SMILES): CNc1nc2cc(C#Cc3cc(NC(=O)Nc4ccc(CN5CCN(C)CC5)c(C(F)(F)F)c4)ccc3C)ccn2n1 [Example 7]
- IC50 (K562 leukemia cells): 5070 nM

Structure (SMILES): Cc1ccc(C(=O)Nc2ccc(CN3CCN(C)CC3)c(C(F)(F)F)c2)cc1C#Cc1cnc2[nH]ccc2n1 [Example 27, hydrochloride]
- AUC(0-inf) ([4]; iv, I.V. 3 mg/kg): 3380 ng·h/mL
- AUC(0-t) ([4]; iv, I.V. 3 mg/kg): 3300 ng·h/mL
- Cmax ([4]; iv, I.V. 3 mg/kg): 1270 ng/mL
- half-life ([4]; iv, I.V. 3 mg/kg): 4.93 h
- MRT inf ([4]; iv, I.V. 3 mg/kg): 4.92 h
- bioavailability ([4]; oral, I.G. 15 mg/kg vs I.V. 3 mg/kg, read-out: F (oral bioavailability)): 32.6%
- AUC(0-inf) ([4]; po, I.G. 15 mg/kg): 5220 ng·h/mL
- AUC(0-t) ([4]; po, I.G. 15 mg/kg): 5370 ng·h/mL
- Cmax ([4]; po, I.G. 15 mg/kg): 376 ng/mL
- Tmax ([4]; po, I.G. 15 mg/kg): 7.33 h
- half-life ([4]; po, I.G. 15 mg/kg): 4.1 h
- MRT inf ([4]; po, I.G. 15 mg/kg): 7.71 h

— patent US9255107B2 (NANJING SANHOME PHARMACEUTICAL CO., LTD., priority 2012, dated 2016)
